The target of one series is T1, β-Secretase (BACE1) (Homo sapiens, UniProt P56817).
T1 construct: purchased Sino Biological
The series can be described thus: β-Secretase inhibition assay (fluorogenic substrate IV). The format is biochemical. The following applies: for inhibition at 25 µM: read-out: BACE1 % Inhibition (at 25 µM) (±SEM). How it is done:
β-Secretase enzyme was reconstituted with 50 mM Tris (pH 7.5), 10% glycerol to yield concentration of 0.5 unit/µL. The enzyme stock solution was diluted with 100 mM sodium acetate buffer (pH 4.5) to 0.01 unit/µL. Thirty microliters of enzyme solution were added to each well that contained 20 µL of 5% DMSO of test compound. Then, fifty microliters of 50 µM β-secretase substrate IV from Calbiochem were added to the reaction plate. […] The assays were run in triplicate.

Series [1] can be described thus: Fe (II) chelation capacity assay (ferrozine). How it is done: An aqueous solution of 0.2 mM ferrous sulphate was prepared. Fifty microliters of this solution was added to 96 well plate, then 40 µL of 500 µM of test compounds in 50% DMSO were added to each well followed by DI water to adjust the volume to 150 µL. The mixtures were incubated at room temperature for 10 min. After incubation, 50 µL of 1 mM ferrozine (Sigma) was added to the reaction mixture. The absorbance was measured at 562 nm by using infinite 200 pro^TM, Tecan. EDTA was used as a positive control. Chelation capacity of each compounds were calculated. Compounds having chelating capacity over than 50% were evaluated for stoichiometric ratio of compound: metal.

For series [2], the target named is T2, amyloid-β (1-42) peptide (Homo sapiens, UniProt P05067).
T2 construct: Stock solution of amyloid-β (1-42) peptide (Anaspec; 1384 µM in 1% NH4OH); purchased Anaspec
T2 sequence (P05067 672-713 limits assumed): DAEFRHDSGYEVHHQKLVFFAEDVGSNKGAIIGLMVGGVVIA
In words: Amyloid β aggregation assay (ThT fluorescence). Format: biochemical. The conditions noted are these: Aβ(1-42), read-out: Anti-Aβ aggregation IC50.

Another series deals with SH-SY5Y cells. In words: Protection against Aβ1-42 induced neuronal cell death, MTT viability assay. Format: cell-based. The conditions noted are these: compound 1 μM. How it is done: The SH-SY5Y cells were cultured in a medium containing minimum essential medium (MEM): F-12 (1:1), 10% fetal bovine serum, MEM non-essential amino acids (0.5×), 0.5 mM sodium pyruvate and 100 units/ml of penicillin and 100 μg/mL of streptomycin. The cells were maintained under a humidified incubator with 5% CO2 in air at 37 °C.
SH-SY5Y cells were seeded in 96-well plates (2 × 10^4 cells per well) for 24 h. […] The aggregated β-amyloid was prepared by incubating in a medium without serum, penicillin and streptomycin at 37 °C for 72 h. The cells treated with aggregated β-amyloid were incubated for 24 h, 15 µL of MTT reagent (5 mg/mL MTT in serum free medium containing […]) was added to each well and incubated at 37 °C for 3 h. The medium was removed from each well. One hundred microlitres of 0.04 N HCl in isopropanol was added to each well to dissolve blue formazan crystals, which is the product of MTT catalyzed by mitochondrial dehydrogenase. The absorbance was measured at 570/630 nm using a Synergy^TM HT multi-detection microplate reader (Bio-Tek Instruments, Winooski, VT, USA).

Series [3] deals with T2, amyloid-β (1-42) peptide. The series can be described thus: Amyloid β aggregation assay (ThT fluorescence). The following applies: Aβ(1-42), 48 h, read-out: Anti-Aβ aggregation % Inhibition (at 100 µM) (±SEM). The format is biochemical. How it is done:
Nine microliters amyloid-β solution was added to a greiner transparent 96 well plate. One microliter of each test compounds (1,000 µM in DMSO) were added to each well and mixed gently by tapping. The final concentrations of each compound were 100 µM in 10% DMSO. The reaction plate was incubated in dark at 37 °C for 48 h. After incubation, 200 µL of 5 µM ThT (Sigma) in 50 mM Tris buffer (pH 7.4) was added to each well. The fluorescence was measured at Ex = 446 nm and Em = 490 nm by using SpectraMax Gemini EM^TM [30]. The assays were run in triplicate.

The nature of series [4]: Free radical scavenging assay (DPPH). How it is done: The test samples were prepared in 50% DMSO at 500 µM. Seventy microliters of DPPH solution (500 µM in methanol) was added to 96 well plate. The assay mixture was adjusted to 80 µL volume by methanol. After adjusting the volume, 20 µL of test compounds was added to each well. The reaction plate was incubated at room temperature in dark for 30 min. The absorbance was measured at 517 nm by using infinite 200 pro^TM, Tecan. Ascorbic acid was used as a positive control. Percent inhibition was calculated and compounds showing activity were evaluated for the IC50 values.
In general terms: Loss of DPPH colour is used to gauge radical scavenging.

pIC50: −log10 of the molar value. “Also recorded” adds a separate entry of the source.

T1 sequence (P56817 46-501): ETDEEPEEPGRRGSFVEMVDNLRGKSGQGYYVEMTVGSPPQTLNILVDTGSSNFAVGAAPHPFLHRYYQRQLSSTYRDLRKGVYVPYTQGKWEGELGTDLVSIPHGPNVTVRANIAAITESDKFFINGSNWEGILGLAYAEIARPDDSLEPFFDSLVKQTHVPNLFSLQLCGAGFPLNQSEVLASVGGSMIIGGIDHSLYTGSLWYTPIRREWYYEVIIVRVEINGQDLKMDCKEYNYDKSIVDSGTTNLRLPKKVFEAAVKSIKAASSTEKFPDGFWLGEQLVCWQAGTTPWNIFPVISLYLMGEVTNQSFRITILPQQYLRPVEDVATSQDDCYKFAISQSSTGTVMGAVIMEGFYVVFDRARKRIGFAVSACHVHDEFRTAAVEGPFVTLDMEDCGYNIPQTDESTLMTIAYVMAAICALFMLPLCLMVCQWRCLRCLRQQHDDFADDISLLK

Consider `O=C(NCc1cn(C[C@@H]2Cc3c([nH]c4ccccc34)CN2)nn1)c1cc(O)cc(O)c1` [Compound 6f, (S)-3-((4-(((N-(3,5-Dihydroxy)benzoyl)azyl)methyl)-1H-1,2,3-triazol-1-yl)methyl)-2,3,4,9-tetrahydro-1H-pyrido[3,4-b]indole], for which the melting point lay in the range of 180 to 182 °C. Moreover, the inhibition at 25 µM on β-Secretase (BACE1) came to 21.3%. The “Fe chelation % Capacity (at 100 µM) (±SEM)” value in series [1] was 5.80 (±0.04) %.

For the compound `N[C@@H](Cc1c[nH]c2ccccc12)Cn1cc(-c2ccc(Cl)c(Cl)c2)nn1` [Compound 12c, (S)-1-(4-(3,4-Dichlorophenyl)-1H-1,2,3-triazol-1-yl)-3-(1H-indol-3-yl)propan-2-amine], the pIC50 on amyloid-β (1-42) peptide [2] was 4.08. On β-Secretase (BACE1), the pIC50 was 4.68 and the inhibition at 25 µM amounted to 61.5%. Also, in the series with SH-SY5Y cells, the “Protective effect against Aβ1-42 induced neuronal cell death (MTT viability)” value is “significantly greater than those of the potent single target compound, BACE1 inhibitor IV; also recorded: decrease cell death to a greater extent than BACE1 inhibitor IV; also recorded: better than that of single targeted ligands”. Besides, on amyloid-β (1-42) peptide [3], the inhibition at 100 µM is > 50%.

As for `N[C@@H](Cc1c[nH]c2ccccc12)Cn1cc(CNC(=O)c2cc(O)cc(O)c2)nn1` [Compound 12f, (S)-N-((1-(2-Amino-3-(1H-indol-3-yl)propyl)-1H-1,2,3-triazol-4-yl)methyl)-3,5-dihydroxybenzamide], the melting point lay within 68 to 70 °C. Besides, the inhibition at 25 µM on β-Secretase (BACE1) was 16.6%. Also, the “DPPH % Inhibition (at 100 µM) (±SEM)” value in series [4] was 1.32 (±0.78) %. Also, in series [1], the “Fe chelation % Capacity (at 100 µM) (±SEM)” value is 13.06 (±0.16) %. Further, the inhibition at 100 µM at amyloid-β (1-42) peptide [3] is 3.8%.

Compound `COc1cc(/C=C/C(=O)NCc2cn(C[C@@H](N)Cc3c[nH]c4ccccc34)nn2)ccc1O` [Compound 12g, (S,E)-N-((1-(2-Amino-3-(1H-indol-3-yl)propyl)-1H-1,2,3-triazol-4-yl)methyl)-3-(4-hydroxy-3-methoxyphenyl)acrylamide] registered a melting point of 118 to 119 °C. On amyloid-β (1-42) peptide [2], the pIC50 was 3.96. Further, the inhibition at 25 µM at β-Secretase (BACE1) is 16.2%. For the same compound, in series [4], the pIC50 was 3.88 and the “DPPH % Inhibition (at 100 µM) (±SEM)” value is reported as 40.79 (±0.31) %. Also, the inhibition at 100 µM at amyloid-β (1-42) peptide [3] is 46.1%.

What is called inhibition is the percentage by which the read-out fell short of the control. Broadly, the melting point is the temperature, or range, at which the solid turns liquid. Broadly, the pIC50 is the IC50 on a negative log10 scale, so that one unit is a factor of ten.

These data come from PMC3618987, “From BACE1 Inhibitor to Multifunctionality of Tryptoline and Tryptamine Triazole Derivatives for Alzheimer’s Disease” (Molecules, 2012).
